Experimental data reported in patent US20180104223A1, “TREATMENT OF PAIN” (PROXIMAGEN LIMITED, priority 2015, published 2018).

Key:
[1] = system: CFA (Complete Freunds Adjuvant) Induced Hypersensitivity in Rat; assay: CFA induced hypersensitivity in rat, weight bearing (incapacitance tester); assay type: in vivo, rat (male Sprague Dawley)
Experimental: (3S)-Tetrahydrofuran-3-yl (4S)-4-isopropyl-1,4,6,7-tetrahydro-5H-imidazo[4,5-c]-pyridine-5-carboxylate was investigated (FIG. 1) in the CFA thermal hyperalgesia model, which is an established model for inflammatory pain. […] In more detail:
(§1) Assessment of the anti-hyperalgesic properties of (3S)-tetrahydrofuran-3-yl (4S)-4-isopropyl-1,4,6,7-tetrahydro-5H-imidazo[4,5-c]pyridine-5-carboxylate mesylate salt was determined through measurement of weight bearing following CFA induced hypersensitivity. Naive rats distribute their body weight equally between the two hind paws. However, when the injected (left) hind paw is painful, the weight is re-distributed so that less weight is put on the affected paw (decrease in weight bearing on injured paw). Weight bearing through each hind limb was measured using a rat incapacitance tester (Linton Instruments, UK). Rats were placed in the incapacitance tester with the hind paws on separate sensors and the average force exerted by both hind limbs was recorded over 4 seconds. The injection of CFA also induces an oedema that can be assessed by paw volume; this is measured using a plethysmometer. The rat's hind paw is placed into the cylinder containing a solution and the volume of displaced liquid determines the paw volume.
Naive male, Sprague Dawley rats were acclimatised with food and water available ad libitum. Habituation to the incapacitance tester was performed. Baseline weight bearing and paw volume recordings were taken prior to induction of insult. Inflammatory hypersensitivity was induced by intraplantar injection of CFA (100 ul of 1 mg/ml solution) into the left hind paw. A pre-treatment weight bearing and paw volume measurement was taken to assess hypersensitivity 23 hours post-CFA. Animals were then ranked and randomised according to CFA window in a Latin square design. (3S)-Tetrahydrofuran-3-yl (4S)-4-isopropyl-1,4,6,7-tetrahydro-5H-imidazo[4,5-c]pyridine-5-carboxylate mesylate salt was then given at 150, 250 and 500 mg/kg p.o. (dosed in water at 2 mL/Kg, pH ˜5-6), alongside vehicle and reference group (indomethacin), n=9-10 per group. Weight bearing was assessed in all groups 1, 2 and 4 hours post compound administration. Paw volume was assessed 4 hours post compound administration. Data was analysed by comparing treatment groups to control group at each time point.
Weight bearing (g) readings were taken for both right and left hind paws and the difference calculated. Data is expressed as % reversal of the hypersensitivity to pain, (post dose reading−pre dose reading)/(naïve reading−pre dose reading)×100, where naive weight bearing difference−pre dose weight bearing difference is defined as the CFA window to be reversed. Statistical analysis was conducted by means of repeated measures ANOVA followed by Planned comparison test using InVivoStat (invivostat.co.uk), (p<0.05 considered significant).

[2] = system: CFA induced oedema, hind paw; assay: CFA induced oedema in rat, paw volume (plethysmometer); assay type: in vivo, rat (male Sprague Dawley); conditions: 150, 250 and 500 mg/kg p.o., 4 hours post compound administration
Experimental: as §1
Naive male, Sprague Dawley rats were acclimatised with food and water available ad libitum. […] Weight bearing was assessed in all groups 1, 2 and 4 hours post compound administration. Paw volume was assessed 4 hours post compound administration. Data was analysed by comparing treatment groups to control group at each time point.

| SMILES | efficacy compared with benchmark indomethacin in the CFA thermal hyperalgesia model ([1]; FIG. 1, summary statement) | efficacy in the CFA thermal hyperalgesia model (inflammatory pain) ([1]; FIG. 1, summary statement) | effect on paw volume [2] | reversal of hypersensitivity (weight bearing) ([1]; 150 mg/kg p.o., rat, 1, 2 and 4 hours post dose) | reversal of hypersensitivity (weight bearing) ([1]; 250 mg/kg p.o., rat, 4 hours post dose) | reversal of hypersensitivity (weight bearing) ([1]; 500 mg/kg p.o., rat, 1, 2 and 4 hours post dose) | time of maximum effect on hypersensitivity ([1]; 500 mg/kg p.o., rat, post dose) |
| --- | --- | --- | --- | --- | --- | --- | --- |
| CC(C)[C@H]1c2[nH]cnc2CCN1C(=O)O[C@H]1CCOC1 [(3S)-Tetrahydrofuran-3-yl (4S)-4-isopropyl-1,4,6,7-tetrahydro-5H-imidazo[4,5-c]pyridine-5-carboxylate] | comparably in efficacy to the gold standard benchmark indomethacin | effective in a dose-dependent manner |  |  |  |  |  |
| CC(C)[C@H]1c2nc[nH]c2CCN1C(=O)O[C@H]1CCOC1.CS(=O)(=O)O [(3S)-Tetrahydrofuran-3-yl (4S)-4-isopropyl-1,4,6,7-tetrahydro-5H-imidazo[4,5-c]pyridine-5-carboxylate, Methananesulfonic Acid Salt] |  |  | No effect | no significant reversal of hypersensitivity at any time point | significant reversal | effective at all time points | 4 h |
